Columns and labels:
[1] = test system: HSP70/HSP90 multi-chaperone client proteins; experiment: Western blot analysis of HSP70/HSP90 chaperone-dependent signaling intermediates and substrates in INA-6 cells; type: cell-based, human; conditions: INA-6, 0.6 μM
Procedure: Western Blot Analysis. Protein expression levels were determined with Western blotting procedures (M. Chatterjee, et al., Blood 2002, 100, 3311-3318). Following separation by SDS-PAGE, proteins were transferred onto nitrocellulose membranes (Schleicher & Schuell, Dassel, Germany) and stained with antibodies against Hsp72, Hsp73, Hsp90 (all from Enzo Life Science, Lörrach, Germany), AIF, lamin A, caspases 9 and 3, PARP (all from Santa Cruz, Heidelberg, Germany). An anti-α tubulin antibody (Sigma, Deisenhofen, Germany) was employed to assess equal loading. Secondary antibodies used were anti-rat (Enzo Life Science), anti-rabbit and anti-mouse (both from GE Healthcare, Little Chalfont, UK). […] The heat shock proteins HSP72 and HSP73 critically interact with HSP90 in order to mediate an essential chaperone function for a multitude of proteins including various signaling intermediates. According to an established HSP72/73-dependent client protein signature and its role for survival in MM, the proposed anti-HSP72/73 effect of trans-7b in the INA-6 multiple myeloma (MM) cell line model was evaluated. […] Lysates were cleared by centrifugation, measured by quantitative protein assay (Bio-Rad, München, Germany) and subjected to SDS gel electrophoresis. […]

[2] = test system: peripheral blood mononuclear cells (PBMCs); experiment: Cell viability assay in non-malignant peripheral blood mononuclear cells; type: cell-based, human; conditions: 72 hours
Procedure: The effect of pharmacological Hsp70 inhibition on cell viability was analyzed after 72 hours of treatment in both non-malignant (mononuclear cells from the peripheral blood) and malignant lymphocytes (multiple myeloma cells). The mononuclear cells were separated from the peripheral blood of healthy donors by Ficoll-Hypaque density gradient centrifugation. The human cell line INA-6 represents a well-established model for multiple myeloma. The percentage of viable and apoptotic cell fractions was assessed using an annexin V-FITC/propidium iodide (PI) staining kit (Bender MedSystems, Vienna, Austria) according to manufacturer's instructions. In brief, cells were washed in PBS, incubated for 10 min in 100 ml binding buffer (10 mM HEPES/NaOH, pH 7.4, 140 mM NaCl, 2.5 mM CaCl2) containing 2.5 ml annexin V-FITC mix and 1 mg/ml propidium iodide (PI), subsequently diluted with 100 ml binding buffer and analyzed by flow cytometry (FACSCalibur/CELLQuest; Becton Dickinson, Heidelberg, Germany). […] To establish kill curves, concentrations of the tested compounds were titrated, and the measured viable cell fractions were further analyzed using the Prism Calculation Software (GraphPad Software Inc., La Jolla, USA). […]

COc1ccc(C2C(C(=O)Nc3cccc(C)n3)c3ccccc3C(=O)N2c2ccccc2)cc1 (stereo not drawn) [trans-7b, trans-3-(4-Methoxyphenyl)-N-(6-methylpyridin-2-yl)-1-oxo-2-phenyl-1,2,3,4-tetrahydroisoquinoline-4-carboxamide]
AKT, C-Raf, RIP, IKKα and MEK levels [1]: strongly downregulated | p-MEK, p-ERK and pSTAT3 levels [1]: downregulated | cytotoxic effect in primary PBMCs (viability) [2]: lack any cytotoxic effect even in higher micromolar concentrations
